Source: patent US9645138B2, “Method to evaluate the tissue targeting of a molecule of interest” (IMABIOTECH, priority 2013, dated 2017)
Like-named read-outs stand apart in the source and are kept apart here.

Key:
[1] = tested on: receptor in the brain (GABA); assay: Receptor occupancy / adsorption by MALDI imaging of rat brain sections, Diazepam dosed and Lorazepam washing (Example 2)
Text: FIG. 7 explains the methodology of adsorption of a molecule on tissue using the example of the receptor occupancy process. In this way, it is possible to measure the occupancy efficiency of the receptor by the drug (agonist) administered to the animal compared with an antagonist molecule. In this example, all the steps of the methodology are described: the dosed tissue analysis alone, the washing step with the antagonist solution of the control tissue and the combined dosed/washing analysis of the administrated sample. No negative marker is required for this kind of experiment.
Of course, in an almost identical manner an imaging device other that MALDI can be used, such as the following: SIMS, DESI, DIOS, ICP, MALDI microscope, SNOM, SMALDI, LA-ICP, ESI (liquid extraction on tissue), MILDI, JEDI, ELDI, etc.
Wild-type rats weighing 35-40 g were used. […] Animals (dosed and control rats) were sacrificed by CO2 asphyxiation. […] Finally, brains were stored at −80° C.
Brains (control and dosed tissues) were sectioned into 10 μm thick layers (coronal section) using a Microm HM560 (Thermo Scientific, France) cooled at −20° C.
The antagonist solution was prepared from a stock solution of Lorazepam at 1 mg/ml in methanol (100%). The final concentration of the washing solution was fixed at 100 pmol/μL in methanol/water+0.1% TFA (7:3). The concentration of the antagonist is a crucial factor for receptor occupancy that improves the binding capacity of the molecule. 20 μL of the solution was spotted on the tissue section (one dosed and one control sample) and then incubated for 1 hour at 37° C. in a box inside an INCU-Line incubator (VWR, France). A dosed brain section without washing was also put in the incubator.
After incubation, tissues were washed using 2 steps to remove unbound molecules from the tissue, firstly with a solution of methanol/water+0.1% TFA (7:3) corresponding to the antagonist washing solution. Secondly, the tissue is washed using only water solution (10 mL) and then placed into a desiccator for 15 min.
A DHB matrix was used for the analysis of all brain tissue sections with or without washing with the Lorazepam solution. This matrix was prepared at a concentration of 40 mg/ml in methanol/water+0.1% TFA (1:1, v/v).
The data was generated in positive reflectron mode.
The F2 factor allows comparison of the fine localization of the agonist and the antagonist in the white matter region and gives information about their similarity or dissimilarity.

[2] = Swiss, mouse, in vivo
Description: (§1) The target tissue, hereinafter “tissue 1”, comprises the medulla and renal calices.
(§2) The non-target adjacent tissue, hereinafter “tissue 2”, is also considered and comprises the renal cortex region.
(§3) Wild-type mice of Swiss strain weighing 25-40 g from Charles River Laboratories were used. […] Mice were sacrificed by CO2 asphyxiation. Kidneys were then removed and plunged into 100% isopentane solution cooled by liquid nitrogen for rapid freezing. Finally, kidneys were stored at −80° C.
(§4) Kidneys were sectioned into 10 μm thick layers (sagittal sections) using a Microm HM560 (Thermo Scientific, France) cooled at −21° C. The sections were then deposited on conductive ITO (indium tin oxide) slides (Delta Technology, USA). Finally, the sections were kept in the cryostat chamber 30 min for cryodrying and then placed in a desiccator for 30 minutes.
(§5) A CHCA matrix was used for the analysis of all kidney tissue sections. This matrix was prepared at a concentration of 10 mg/ml in acetonitrile/water+0.1% TFA (6:1, v/v). The matrix solution was deposited using the SunCollect spraying system (SunChrom, Germany) following optimized protocol.
(§6) The images were obtained using an AutoFlex Speed MALDI-TOF mass spectrometer (Bruker Daltonics, Bremen, Germany) equipped with a Smartbeam II laser. The data was generated in positive reflectron mode. A total of 500 spectra were obtained for each spot with a 1000 Hz laser frequency and a 200×200 μm^2 image spatial resolution on a mass range of 100 to 1000 Da. The FlexImaging version 4.0 software was used to reconstruct the images and Quantinetix 1.6 software (ImaBiotech, Loos, France) permitted the extraction of spectral intensities of ions corresponding to each studied molecule.
(§7) The imaging data treatment software Quantinetix is used to extract relative intensities of each ion of interest and control compound for each position (or voxel) within each drawn region.
(§8) The next step is to normalize the whole dataset in order to compare them. The highest intensity related to each ion is used to normalize the intensities per position. One calculates mean normalized intensities for each ion and tissue type.
(§9) By definition, one considers that positive control compound factor F1 is equal to 100% whereas negative control compound factor F1 is equal to 0%.
(§10) F2 factor calculation is performed using normalized intensity values from the previous F1 factor evaluation. Position per position, one assesses the standard deviations of intensity values of the molecule of interest and the negative control with positive control one at the level of the target tissue (T1).
(§11) By definition, the positive control compound's factor F2 is considered equal to 100% whereas the negative control compound's factor F2 is equal to 0%.

[3] = MALDI mass spectrometry imaging of mouse kidney sections after oral co-administration (Example 1)
Description: as §1, §2, §3, §4, §5, §6, §7, §8, §9, §10, §11

[4] = rat brain targeted area T1, positive marker Lorazepam = 100%
[5] = mouse kidney target tissue T1, positive control 100% and negative control 0% by definition

SMILES: O=C1Nc2ccc(Cl)cc2C(c2ccccc2Cl)=NC1O (centres unmarked) [Lorazepam]
- localization on the brain section (MSI) ([1]; control tissue section washed with the Lorazepam solution (100 pmol/μL, 1 hour at 37° C.)): especially in the white matter
- F1 (%) [1, 4]: 100%
- F2 (%) [1, 4]: 100%
- Normalized mean intensity/Tissue T1 ([1]; rat brain, targeted area T1 (white matter, receptor binding site), Diazepam 15 mg/kg i.v., Lorazepam washing 100 pmol/μL): 0.821
- Normalized mean intensity/Tissue T2 ([1]; rat brain, untargeted area T2 (rest of the brain), Diazepam 15 mg/kg i.v., Lorazepam washing 100 pmol/μL): 0.21
- % Tar (targeting coefficient) ([1]; target area (Receptor) T1, rat brain): 100%

SMILES: CN1C(=O)CC(C)(c2ccccc2)C1=O (centres unmarked) [Methsuximide]
- % Tg (global targeting coefficient) [2]: 0%
- F1 (%) [2]: 0%
- F2 (%) [2]: 0%
- Mean normalized intensity per tissue T1 ([2]; po, 8 mg/kg): 0.062
- Mean normalized intensity per tissue T2 ([2]; po, 8 mg/kg): 0.241

SMILES: Cc1cc2c(s1)Nc1ccccc1N=C2N1CCN(C)CC1 [Olanzapine]
- % Tg (global targeting coefficient) ([3]; mouse kidney target tissue T1): 40%
- F1 (%) [3, 5]: 52.2%
- distribution in the kidney section (MS image, FIG. 6) ([3]; mouse kidney, oral 8 mg/kg): mainly localized in the right half section of the medulla
- affinity / targeting behavior for the medulla region ([3]; mouse kidney, summary of Example 1): mean affinity

SMILES: CC[C@@H]([C@H](C)O)n1ncn(-c2ccc(N3CCN(c4ccc(OC[C@@H]5CO[C@@](Cn6cncn6)(c6ccc(F)cc6F)C5)cc4)CC3)cc2)c1=O [Posaconazole]
- % Tg (global targeting coefficient) ([3]; mouse kidney target tissue T1): 100%
- F1 (%) [3, 5]: 100%
- F2 (%) [3, 5]: 100%
- Mean normalized intensity per tissue T2 ([3]; mouse kidney, non target tissue T2 (renal cortex), oral 8 mg/kg, MALDI imaging): 0.055
- Mean normalized intensity per tissue T1 ([3]; mouse kidney, target tissue T1 (medulla), oral 8 mg/kg, MALDI imaging): 0.281
